Reference: PubChem BioAssay AID1259407 (Chemical Carcinogenesis Research Information System (CCRIS), 2018)
Calls of active or inactive are those of the source. No rule for the calls is given here.

System: CCRIS mutagenicity, Ames/micronucleus/aberration tests
Experiment: CCRIS mutagenicity studies

In the case of C=CC(=O)NCO, the mutagenic call (Test System: AMES SALMONELLA TYPHIMURIUM, Strain/Indicator: TA97, Metabolic Activation: HAMSTER, LIVER, S-9, AROCLOR 1254 (10%), Method: PREINCUBATION) is reported as “inactive; negative”, the mutagenic call (Test System: AMES SALMONELLA TYPHIMURIUM, Strain/Indicator: TA97, Metabolic Activation: HAMSTER, LIVER, S-9, AROCLOR 1254 (10 OR 30%), Method: PREINCUBATION) is reported as “inactive; negative” and the mutagenic call (Test System: AMES SALMONELLA TYPHIMURIUM, Strain/Indicator: TA97, Metabolic Activation: HAMSTER, LIVER, S-9, AROCLOR 1254 (30%), Method: PREINCUBATION) is reported as “inactive; negative”. For the same compound, the mutagenic call (Test System: AMES SALMONELLA TYPHIMURIUM, Strain/Indicator: TA97, Metabolic Activation: NONE, Method: PREINCUBATION) was “inactive; negative”, the mutagenic call (Test System: AMES SALMONELLA TYPHIMURIUM, Strain/Indicator: TA97, Metabolic Activation: RAT, LIVER, S-9, AROCLOR 1254 (10% OR 30%), Method: PREINCUBATION) was “inactive; negative” and the mutagenic call (Test System: AMES SALMONELLA TYPHIMURIUM, Strain/Indicator: TA97, Metabolic Activation: RAT, LIVER, S-9, AROCLOR 1254 (10 OR 30%), Method: PREINCUBATION) was “inactive; negative”. For the same compound, the mutagenic call (Test System: AMES SALMONELLA TYPHIMURIUM, Strain/Indicator: TA98, Metabolic Activation: HAMSTER, LIVER, S-9, AROCLOR 1254 (10% OR 30%), Method: PREINCUBATION) was “inactive; negative”, the mutagenic call (Test System: AMES SALMONELLA TYPHIMURIUM, Strain/Indicator: TA98, Metabolic Activation: HAMSTER, LIVER, S-9, AROCLOR 1254 (10 OR 30%), Method: PREINCUBATION) was “inactive; negative” and the mutagenic call (Test System: AMES SALMONELLA TYPHIMURIUM, Strain/Indicator: TA98, Metabolic Activation: NONE, Method: PREINCUBATION) was “inactive; negative”. The mutagenic call (Test System: AMES SALMONELLA TYPHIMURIUM, Strain/Indicator: TA98, Metabolic Activation: RAT, LIVER, S-9, AROCLOR 1254 (10% OR 30%), Method: PREINCUBATION) was “inactive; negative”, the mutagenic call (Test System: AMES SALMONELLA TYPHIMURIUM, Strain/Indicator: TA98, Metabolic Activation: RAT, LIVER, S-9, AROCLOR 1254 (10 OR 30%), Method: PREINCUBATION) was “inactive; negative” and the mutagenic call (Test System: AMES SALMONELLA TYPHIMURIUM, Strain/Indicator: TA98, Metabolic Activation: RAT, LIVER, S-9, PHENOBARBITAL AND BETA-NAPHTHOFLAVONE, Method: PREINCUBATION) was “inactive; negative”. For the same compound, the mutagenic call (Test System: AMES SALMONELLA TYPHIMURIUM, Strain/Indicator: TA100, Metabolic Activation: HAMSTER, LIVER, S-9, AROCLOR 1254 (10% OR 30%), Method: PREINCUBATION) was “inactive; negative”, the mutagenic call (Test System: AMES SALMONELLA TYPHIMURIUM, Strain/Indicator: TA100, Metabolic Activation: HAMSTER, LIVER, S-9, AROCLOR 1254 (10 OR 30%), Method: PREINCUBATION) was “inactive; negative” and the mutagenic call (Test System: AMES SALMONELLA TYPHIMURIUM, Strain/Indicator: TA100, Metabolic Activation: NONE, Method: PREINCUBATION) was “inactive; negative”. For the same compound, the mutagenic call (Test System: AMES SALMONELLA TYPHIMURIUM, Strain/Indicator: TA100, Metabolic Activation: RAT, LIVER, S-9, AROCLOR 1254 (10% OR 30%), Method: PREINCUBATION) was “inactive; negative”, the mutagenic call (Test System: AMES SALMONELLA TYPHIMURIUM, Strain/Indicator: TA100, Metabolic Activation: RAT, LIVER, S-9, AROCLOR 1254 (10 OR 30%), Method: PREINCUBATION) was “inactive; negative” and the mutagenic call (Test System: AMES SALMONELLA TYPHIMURIUM, Strain/Indicator: TA100, Metabolic Activation: RAT, LIVER, S-9, PHENOBARBITAL AND BETA-NAPHTHOFLAVONE, Method: PREINCUBATION) was “inactive; negative”. The mutagenic call (Test System: AMES SALMONELLA TYPHIMURIUM, Strain/Indicator: TA102, Metabolic Activation: NONE, Method: PREINCUBATION) was “inactive; negative”, the mutagenic call (Test System: AMES SALMONELLA TYPHIMURIUM, Strain/Indicator: TA102, Metabolic Activation: RAT, LIVER, S-9, PHENOBARBITAL AND BETA-NAPHTHOFLAVONE, Method: PREINCUBATION) was “inactive; negative” and the mutagenic call (Test System: AMES SALMONELLA TYPHIMURIUM, Strain/Indicator: TA104, Metabolic Activation: NONE, Method: PREINCUBATION) was “inactive; negative”. For the same compound, the mutagenic call (Test System: AMES SALMONELLA TYPHIMURIUM, Strain/Indicator: TA104, Metabolic Activation: RAT, LIVER, S-9, PHENOBARBITAL AND BETA-NAPHTHOFLAVONE, Method: PREINCUBATION) was “inactive; negative”, the mutagenic call (Test System: AMES SALMONELLA TYPHIMURIUM, Strain/Indicator: TA1535, Metabolic Activation: HAMSTER, LIVER, S-9, AROCLOR 1254 (10% OR 30%), Method: PREINCUBATION) was “inactive; negative” and the mutagenic call (Test System: AMES SALMONELLA TYPHIMURIUM, Strain/Indicator: TA1535, Metabolic Activation: HAMSTER, LIVER, S-9, AROCLOR 1254 (10 OR 30%), Method: PREINCUBATION) was “inactive; negative”. The mutagenic call (Test System: AMES SALMONELLA TYPHIMURIUM, Strain/Indicator: TA1535, Metabolic Activation: NONE, Method: PREINCUBATION) was “inactive; negative”, the mutagenic call (Test System: AMES SALMONELLA TYPHIMURIUM, Strain/Indicator: TA1535, Metabolic Activation: RAT, LIVER, S-9, AROCLOR 1254 (10% OR 30%), Method: PREINCUBATION) was “inactive; negative” and the mutagenic call (Test System: AMES SALMONELLA TYPHIMURIUM, Strain/Indicator: TA1535, Metabolic Activation: RAT, LIVER, S-9, AROCLOR 1254 (10 OR 30%), Method: PREINCUBATION) was “inactive; negative”. For the same compound, the mutagenic call (Test System: AMES SALMONELLA TYPHIMURIUM, Strain/Indicator: TA1535, Metabolic Activation: RAT, LIVER, S-9, PHENOBARBITAL AND BETA-NAPHTHOFLAVONE, Method: PREINCUBATION) was “inactive; negative”, the mutagenic call (Test System: AMES SALMONELLA TYPHIMURIUM, Strain/Indicator: TA1537, Metabolic Activation: NONE, Method: PREINCUBATION) was “inactive; negative” and the mutagenic call (Test System: AMES SALMONELLA TYPHIMURIUM, Strain/Indicator: TA1537, Metabolic Activation: RAT, LIVER, S-9, PHENOBARBITAL AND BETA-NAPHTHOFLAVONE, Method: PREINCUBATION) was “inactive; negative”. For the same compound, the mutagenic call (Test System: E. COLI, Strain/Indicator: WP2UVRA/PKM101, Metabolic Activation: NONE, Method: PREINCUBATION) was “inactive; negative”, the mutagenic call (Test System: E. COLI, Strain/Indicator: WP2UVRA/PKM101, Metabolic Activation: RAT, LIVER, S-9, PHENOBARBITAL AND BETA-NAPHTHOFLAVONE, Method: PREINCUBATION) was “inactive; negative” and the mutagenic call (Test System: E. COLI, Strain/Indicator: WP2UVRA, Metabolic Activation: NONE, Method: PREINCUBATION) was “inactive; negative”. For the same compound, the mutagenic call (Test System: E. COLI, Strain/Indicator: WP2UVRA, Metabolic Activation: RAT, LIVER, S-9, PHENOBARBITAL AND BETA-NAPHTHOFLAVONE, Method: PREINCUBATION) was “inactive; negative”.
In the case of [N-]=[N+]=NC[C@@H]1O[C@H](O)[C@H](O)[C@@H](O)[C@@H]1O, the mutagenic call (Test System: AMES SALMONELLA TYPHIMURIUM, Strain/Indicator: TA98, Metabolic Activation: NONE, Method: STANDARD PLATE) is reported as “inactive; negative” and the mutagenic call (Test System: AMES SALMONELLA TYPHIMURIUM, Strain/Indicator: TA100, Metabolic Activation: NONE, Method: STANDARD PLATE) is reported as “active; positive”.
FC(F)(Br)C(F)(F)I was tested, and the mutagenic call (Test System: Ames Salmonella typhimurium, Strain/Indicator: TA98, Metabolic Activation: None, Method: Preincubation) was “inactive; negative”, the mutagenic call (Test System: Ames Salmonella typhimurium, Strain/Indicator: TA98, Metabolic Activation: Rat, Liver, S9, Sodium phenobarbital and 5,6-benzoflavone (10%), Method: Preincubation) was “inactive; negative” and the mutagenic call (Test System: Ames Salmonella typhimurium, Strain/Indicator: TA100, Metabolic Activation: None, Method: Preincubation) was “inactive; negative”. For the same compound, the mutagenic call (Test System: Ames Salmonella typhimurium, Strain/Indicator: TA100, Metabolic Activation: Rat, Liver, S9, Sodium phenobarbital and 5,6-benzoflavone (10%), Method: Preincubation) was “inactive; negative”, the mutagenic call (Test System: Ames Salmonella typhimurium, Strain/Indicator: TA1535, Metabolic Activation: None, Method: Preincubation) was “active; positive” and the mutagenic call (Test System: Ames Salmonella typhimurium, Strain/Indicator: TA1535, Metabolic Activation: Rat, Liver, S9, Sodium phenobarbital and 5,6-benzoflavone (10%), Method: Preincubation) was “active; positive”. For the same compound, the mutagenic call (Test System: Ames Salmonella typhimurium, Strain/Indicator: TA1537, Metabolic Activation: None, Method: Preincubation) was “inactive; negative”, the mutagenic call (Test System: Ames Salmonella typhimurium, Strain/Indicator: TA1537, Metabolic Activation: Rat, Liver, S9, Sodium phenobarbital and 5,6-benzoflavone (10%), Method: Preincubation) was “inactive; negative” and the mutagenic call (Test System: E. coli, Strain/Indicator: WP2uvrA/pKM101, Metabolic Activation: None, Method: Preincubation) was “active; positive”. The mutagenic call (Test System: E. coli, Strain/Indicator: WP2uvrA/pKM101, Metabolic Activation: Rat, Liver, S9, Sodium phenobarbital and 5,6-benzoflavone (10%), Method: Preincubation) was “active; positive”.
